Data published in patent USRE47078E1, “Polymorphic forms of N-[4-(trifluoromethyl)benzyl]-4-methoxybutyramide” (Laboratorio Farmaceutico C.T. S.R.L., priority 2007, dated 2018).
Converted amounts (≈) assume the structure as drawn. “Also recorded” adds a separate entry of the source. Like-named read-outs stand apart in the source and are kept apart here.

Key:
[1] = Solubility of the polymorphs at different pH (HPLC assay); assay type: physicochemical; settings: for solubility at 24 h / solubility at 30 min: thermodynamic from solid; for solubility at 24 h: read-out: Solubility, After 24 hours; for solubility at 30 min: read-out: Solubility, Initial evaluation
Protocol: Both samples of powder (Form A and Form B) were used in order to evaluate the solubility properties of the two polymorphs at different pH.
The two samples were tested in the following pH conditions: • Hydrochloric acid buffer at pH=1.2 • Acetic acid at pH=3.0 • Phosphate buffer at pH=3.0 • Phosphate buffer at pH=4.6 • Phosphate buffer at pH=6.0 • Phosphate buffer at pH=7.4 • Alkaline phosphate buffer at pH=8.0
0.5 g of each samples were dissolved in a glass flask using 100 ml of the appropriate buffer. The two samples were then kept under stirring for 30 minutes. If the samples were completed dissolved, 1 additional gram was added in the flask and stirred for 30 minutes. The procedure was repeated till the presence of undissolved product in the bottom of the flask. After such a dissolution procedure, the samples were stored for 24 hours and then the dissolved amounts of Form A and Form B, respectively, were determined by HPLC assay.

[2] = Thermodynamic stability / interconversion of the polymorphs; assay type: physicochemical
immune system = experiment: PCF test (Plaque Forming Cells) in rats; assay type: in vivo, rat
Protocol: A possible effect of polymorphic Form A on the immune system was evaluated by using the method system of Plaque Forming Cells (PCF) in the rat, following oral administration to rats for 28 days at the doses of 150, 250 and 500 mg/kg. The method is based on the stimulation of the immune system with an antigenic agent (sheep's red blood cells) and on the evaluation of the effect of the test item on the immune response. The immune response was assessed by measuring the proportion of splenocytes which produced antibodies against the antigenic agent (Plaque Forming Cells) in presence of complement. […] In fact, statistical analysis evidenced a significativity at 150 mg/kg, but not at 250 mg/kg; these findings might indicate that the effects is observed at these doses could be due to the variability normally present in this test as heterogeneity in immune response is often seen and it is likely to be related to individual differences in immune sensitivity, […]

Salmonella typhimurium = experiment: Salmonella Typhimurium Reverse Mutation Assay (Ames test); assay type: cell-based
Protocol: The mutagenic potential of polymorphic Form A was evaluated in vitro in the Salmonella Typhimurium Reverse Mutation Assay according to EC guidelines. […] Therefore polymorphic Form A is to be considered non-mutagenic in this Salmonella typhimurium reverse mutation assay.

Rat (Bone marrow Cells) = experiment: Micronucleus test in rat bone marrow; assay type: in vivo; settings: os, single, 500-2000 mg/kg, 24 and 48 hours
Protocol: Any clastogenic or spindle poison activity of polymorphic Form A was investigated by detecting micronucleated polychromatic erythrocytes in the bone marrow of treated rats. The study was conducted in compliance with the EC Guidelines. The method involved searching for the presence of a chromosome fragment, or a number of chromosomes, resulting from a deletion or a mitotic spindle poison effect, in the polychromatic erythrocytes in the bone marrow. Clastogenic products may produce, at the moment of mitosis, chromosome breakage, while spindle poisons disturb the structure of the mitotic spindles. An acentric fragment of a chromosome that has not migrated normally is not retained in the nucleus of the daughter cell, and appears in the cytoplasm. It is then known as a Howell-Jolly body or micronucleus. The micronucleus can be detected in polychromatic erythrocytes, as these cells expel their main nucleus shortly after the last mitosis and the micronucleus remains in the red blood cells. Male and female Sprague Dawley rats were treated orally once with 2000-1000-500 mg/kg of polymorphic Form A and 24 and 48 hours after the treatment their femurs were sampled and bone marrow cells were extracted.

[3] = acetic acid, pH 3, aqueous buffer, pH 3.0 (acetic acid)
[4] = alkaline phosphate buffer, pH 8, aqueous buffer, pH 8.0
[5] = buffer at pH 6.8 (buffer type not named for this pH), pH 6.8, aqueous buffer, pH 6.8
[6] = hydrochloric acid buffer, pH 1.2, simulated gastric fluid, pH 1.2
[7] = phosphate buffer, pH 3, aqueous buffer, pH 3.0 (phosphate buffer)
[8] = phosphate buffer, pH 4.6, aqueous buffer, pH 4.6
[9] = phosphate buffer, pH 6, aqueous buffer, pH 6.0
[10] = phosphate buffer, pH 7.4, aqueous buffer, pH 7.4

`COCCCC(=O)NCc1ccc(C(F)(F)F)cc1` [Polymorphic Form A, N-[4-(trifluoromethyl)benzyl]-4-methoxybutyramide] gave a solubility at 24 h [1, 3] of 160 µg/mL (≈ 582 µM), a solubility at 30 min [1, 3] of 124 µg/mL (≈ 450 µM) and a solubility at 24 h [1, 4] of 142 µg/mL (≈ 515 µM). For the same compound, the solubility at 30 min [1, 4] was 134 µg/mL (≈ 486 µM), the solubility at 24 h [1, 5] was 164 µg/mL (≈ 597 µM) and the solubility at 30 min [1, 5] was 106 µg/mL (≈ 385 µM). The “Differences in solubility / dissolution properties between the two forms” value ([1]; dissolution tests on each polymorph) was “have not shown differences in the solubility properties”, the solubility at 24 h [1, 6] was 160 µg/mL (≈ 580 µM) and the solubility at 30 min [1, 6] was 153 µg/mL (≈ 554 µM). For the same compound, the solubility at 24 h [1, 7] was 151 µg/mL (≈ 548 µM), the solubility at 30 min [1, 7] was 116 µg/mL (≈ 423 µM) and the solubility at 24 h [1, 8] was 145 µg/mL (≈ 528 µM). The solubility at 30 min [1, 8] was 132 µg/mL (≈ 481 µM), the solubility at 24 h [1, 9] was 140 µg/mL (≈ 508 µM) and the solubility at 30 min [1, 9] was 118 µg/mL (≈ 430 µM). For the same compound, the solubility at 24 h [1, 10] was 140 µg/mL (≈ 508 µM), the solubility at 30 min [1, 10] was 117 µg/mL (≈ 426 µM) and the solubility at 24 h ([1]; water, Water) was 164 µg/mL (≈ 596 µM). The solubility at 30 min ([1]; water, Water) was 138 µg/mL (≈ 501 µM), the “Thermodynamic stability, conversion of one form into the other” value [2] was “thermodynamically stable, with no conversion of one into the other” and the “Immunosuppressant activity (Plaque Forming Cells)” value (from here on “Immunosuppressant activity”) (immune system; 500 mg/kg oral, 28 days) was “clear-cut”. The “Immunosuppressant activity” value (immune system; 150 and 250 mg/kg oral, 28 days) was “comparable borderline effect”, the “Immunosuppressant activity” value (immune system; oral, 28 days, 150, 250 and 500 mg/kg) was “slight and not dose-dependent immunosuppressant activity” and the “Genotoxicity, Ames test result” value (Salmonella typhimurium; S. typhimurium, in vitro, 3-500 μg/ml) was “Negative”. The “Gene mutations by base pair changes or frameshifts” value (Salmonella typhimurium; TA 1535, TA 1537, TA 98, TA 100, TA102, 50 to 3000 μg/ml, with and without metabolic activation) was “did not induce gene mutations” and the “Genotoxicity, Micronucleus test result” value (Rat (Bone marrow Cells)) was “no clastogenic activity; also recorded: Negative”.
